In patent US10407735B2, “Schlap-1 ncRNA and uses thereof” (THE REGENTS OF THE UNIVERSITY OF MICHIGAN, priority 2010, dated 2019):

Columns and labels:
[1] = tested on: LNCAP prostate cells
[2] = tested on: RWPE benign prostate cells
[3] = tested on: MCF7 breast cancer cells
[4] = tested on: Du145 prostate cancer cells
[5] = tested on: PCAT-14 expression in VCaP and LNCaP cells; test: Androgen treatment (R1881), ncRNA expression by qPCR; assay type: cell-based, human; conditions: 5 nM R1881, androgen responsive VCaP and LNCaP cells
Excerpt: The benign immortalized prostate cell line RWPE as well as PC3, Du145, LNCaP, VCaP, 22Rv1, CWR22, C4-2B, NCI-660, MDA PCa 2b, WPMY-1, and LAPC-4 prostate cell lines were obtained from the American Type Culture Collection (Manassas, Va.). Benign non-immortalized prostate epithelial cells (PrEC) and prostate smooth muscle cells (PrSMC) were obtained from Lonza (Basel, Switzerland). Cell lines were maintained using standard media and conditions. For androgen treatment experiments, LNCaP and VCaP cells were grown in androgen depleted media lacking phenol red and supplemented with 10% charcoal-stripped serum and 1% penicillin-streptomycin. After 48 hours, cells were treated with 5 nM methyltrienolone (R1881, NEN Life Science Products) or an equivalent volume of ethanol. Cells were harvested for RNA at 6, 24, and 48 hours post-treatment. Prostate tissues were obtained from the radical prostatectomy series and Rapid Autopsy Program at the University of Michigan tissue core. These programs are part of the University of Michigan Prostate Cancer Specialized Program Of Research Excellence (S.P.O.R.E.). […]
Quantitative Real-time PCR (qPCR) was performed using Power SYBR Green Mastermix (Applied Biosystems, Foster City, Calif.) on an Applied Biosystems 7900HT Real-Time PCR System. […] Fold changes were calculated relative to GAPDH and normalized to the median value of the benign samples.

| Compound | sensitivity to PARP1 inhibitor [1] | sensitivity to PARP1 inhibitor [2] | sensitivity to PARP1 inhibitor [3] | sensitivity to PARP1 inhibitor [4] | PCAT-14 expression [5] |
| --- | --- | --- | --- | --- | --- |
| C[C@]1(c2nc3c(C(N)=O)cccc3[nH]2)CCCN1 [ABT-888] | reduces sensitivity | increases sensitivity | does not recapitulate this effect | increases sensitivity |  |
| C[C@]1(O)CC[C@H]2[C@@H]3CCC4=CC(=O)CCC4=C3C=C[C@@]21C [R1881, methyltrienolone] |  |  |  |  | induced |
